Measurements taken from ChEMBL document CHEMBL4834391, “Role of Ascaridole and p-Cymene in the Sleep-Promoting Effects of Dysphania ambrosioides Essential Oil via the GABAergic System in a ddY Mouse Inhalation Model” (J Nat Prod, 2021).
Active and inactive are the calls of the source. The rule behind the calls is not given here.

Experiments:
[1] = Sedative activity in ddY mouse assessed as decrease in spontaneous locomotor activity at 0.4 mg administered via inhalation relative to control; parameters: scale not given: the % may be the effect or the level left; conditions: in vivo, inhaled_or_intranasal
[2] = Sedative activity in ddY mouse assessed as decrease in spontaneous locomotor activity at 0.0004 mg administered via inhalation relative to control; parameters: scale not given: the % may be the effect or the level left; conditions: in vivo, inhaled_or_intranasal
[3] = Sedative activity in ddY mouse assessed as decrease in spontaneous locomotor activity at 0.004 mg administered via inhalation relative to control; parameters: scale not given: the % may be the effect or the level left; conditions: in vivo, inhaled_or_intranasal
[4] = Sedative activity in ddY mouse assessed as decrease in caffeine-induced spontaneous locomotor activity at 0.004 mg administered via inhalation post caffeine stimulation (reference value: 68 %); parameters: scale not given: the % may be the effect or the level left; conditions: in vivo, inhaled_or_intranasal
[5] = Sedative activity in ddY mouse assessed as decrease in spontaneous locomotor activity at 0.00004 mg administered via inhalation relative to control; parameters: scale not given: the % may be the effect or the level left; conditions: in vivo, inhaled_or_intranasal, at 40 ng
[6] = Toxicity in mouse assessed as lethal dose; conditions: in vivo
Mus musculus [7] = assay: Sleep-promoting activity in ddY mouse assessed as enhancement of pentobarbital-induced sleep resulting in prolonged sleeping time at 0.004 mg administered via inhalation relative to control; assay type: functional
[8] = Sedative activity in ddY mouse assessed as decrease in spontaneous locomotor activity when administered via inhalation relative to control; parameters: scale not given: the % may be the effect or the level left; conditions: in vivo, inhaled_or_intranasal
Mus musculus [9] = assay: Myorelaxant effect in ddY mouse assessed as decrease in endurance latency time at 0.004 mg administered via inhalation by rota-rod test; assay type: functional, organism-based
[10] = Sedative activity in ddY mouse assessed as decrease in spontaneous locomotor activity at 0.04 mg administered via inhalation relative to control; parameters: scale not given: the % may be the effect or the level left; conditions: in vivo, inhaled_or_intranasal
Mus musculus [11] = assay: Myorelaxant effect in ddY mouse assessed as decrease in endurance latency time at 0.000004 mg administered via inhalation by rota-rod test; assay type: functional, organism-based; conditions: dose 4 ng
[12] = Sedative activity in ddY mouse assessed as decrease in caffeine-induced spontaneous locomotor activity at 0.000004 mg administered via inhalation post caffeine stimulation (reference value: 68 %); parameters: scale not given: the % may be the effect or the level left; conditions: in vivo, inhaled_or_intranasal, at 4 ng
Mus musculus [13] = assay: Sleep-promoting activity in ddY mouse assessed as enhancement of pentobarbital-induced sleep resulting in prolonged sleeping time at 0.000004 mg administered via inhalation relative to control; assay type: functional; conditions: dose 4 ng
Mus musculus [14] = assay: Sleep-promoting activity in ddY mouse assessed as decrease in pentobarbital-induced sleep ing duration at 3 mg/kg relative to control; assay type: functional; parameters: scale not given: the % may be the effect or the level left
Mus musculus [15] = organism: Mus musculus; assay: Myorelaxant effect in ddY mouse assessed as decrease in endurance latency time by rota-rod test; assay type: functional, organism-based

Row | SMILES | Activity [1] | Activity [2] | Activity [3] | Activity [4] | Activity [5] | LD50 [6] | Activity (Mus musculus [7]) | Activity [8] | Activity (Mus musculus [9]) | Activity [10] | Activity (Mus musculus [11]) | Activity [12] | Activity (Mus musculus [13]) | Activity (Mus musculus [14]) | Activity (Mus musculus [15])
1 | CC(C)C12C=CC(C)(CC1)OO2 (configuration not stated) [ASCARIDOLE] | 56% | 52% | 67% | 47% | 64% | 400 mg/kg | 42% | 56% | inactive | 64% | – | – | – | – | –
2 | Cc1ccc(C(C)C)cc1 [P-CYMENE] | 68% | 57% | 61% | – | 69% | 4750 mg/kg | – | 63% | – | 67% | inactive | 50% | 77% | – | –
3 | CCOC(=O)c1ncn2c1CN(C)C(=O)c1cc(F)ccc1-2 [FLUMAZENIL] | – | – | – | – | – | – | – | – | – | – | – | – | – | 31% | –
4 | CN1C(=O)CN=C(c2ccccc2)c2cc(Cl)ccc21 | – | – | – | – | – | – | – | – | – | – | – | – | – | – | Active
